Laboratory results from ChEMBL document CHEMBL1914384, “Design, synthesis, and structure-activity relationship studies of highly potent novel benzoxazinyl-oxazolidinone antibacterial agents” (J Med Chem, 2011).
Values after ≈ are worked out from the molar mass of the structure shown.

Assays:
Type in all cases: functional
[1] = system: Streptococcus pneumoniae; assay: Antibacterial activity against penicillin-resistant Streptococcus pneumoniae after 16 hrs by agar dilution method
[2] = system: Staphylococcus aureus; assay: Antibacterial activity against methicillin-resistant Staphylococcus aureus after 16 hrs by agar dilution method
[3] = system: Staphylococcus aureus; assay: Antibacterial activity against Staphylococcus aureus ATCC 29213 after 16 hrs by agar dilution method; details: ATCC 29213, 16 h
[4] = system: Enterococcus faecalis; assay: Antibacterial activity against Enterococcus faecalis after 16 hrs by agar dilution method
[5] = system: Staphylococcus epidermidis; assay: Antibacterial activity against methicillin-resistant Staphylococcus epidermidis after 16 hrs by agar dilution method

Which results are given for `CC(=O)NC[C@@H]1OC(=O)N2c3ccc(-c4cncc(C#N)c4)cc3OC[C@@H]12`?
MIC [1]: 0.5 µg/mL (≈ 1.37 µM); MIC [2]: 0.5 µg/mL (≈ 1.37 µM); MIC [3]: 0.5 µg/mL (≈ 1.37 µM); MIC [4]: 1 µg/mL (≈ 2.74 µM); MIC [5]: 0.5 µg/mL (≈ 1.37 µM)

What does the source list for `CC(=O)NC[C@@H]1OC(=O)N2c3ccc(-c4cnc(N)nc4)cc3OC[C@@H]12`?
MIC [1]: 1 µg/mL (≈ 2.81 µM); MIC [2]: 1 µg/mL (≈ 2.81 µM); MIC [3]: 1 µg/mL (≈ 2.81 µM); MIC [4]: 2 µg/mL (≈ 5.63 µM); MIC [5]: 1 µg/mL (≈ 2.81 µM)

How did the MIC [1] turn out when `CC(=O)NC[C@@H]1OC(=O)N2c3ccc(-c4ccc(CC#N)nc4)cc3OC[C@@H]12` was run?
Its MIC is 0.5 µg/mL (≈ 1.32 µM).

What about the MIC [2] of the same compound?
The MIC was 0.25 µg/mL (≈ 0.661 µM).

And the MIC [3]?
Its MIC is 0.25 µg/mL (≈ 0.661 µM).

And the MIC [4]?
The MIC was 0.5 µg/mL (≈ 1.32 µM).

And the MIC [5]?
The MIC was 0.25 µg/mL (≈ 0.661 µM).

What does the source list for `CC(=O)NC[C@@H]1OC(=O)N2c3ccc(N4CCN(Cc5ccncc5)CC4)cc3OC[C@@H]12`?
MIC [1]: > 16 µg/mL; MIC [2]: > 16 µg/mL; MIC [3]: 16 µg/mL (≈ 36.6 µM); MIC [4]: > 16 µg/mL; MIC [5]: > 16 µg/mL

`CC(=O)NC[C@@H]1OC(=O)N2c3ccc(-c4ccc(C#N)cn4)cc3OC[C@@H]12` was tested. Which MIC [1] did it give?
The MIC was 2 µg/mL (≈ 5.49 µM).

And the MIC [2]?
The MIC was 1 µg/mL (≈ 2.74 µM).

What about the MIC [3] of the same compound?
The MIC was 2 µg/mL (≈ 5.49 µM).

And the MIC [4]?
The MIC was 2 µg/mL (≈ 5.49 µM).

What about the MIC [5] of the same compound?
The MIC was 1 µg/mL (≈ 2.74 µM).

For `CC(=O)NC[C@@H]1OC(=O)N2c3ccc(N4CCN(Cc5ccccn5)CC4)cc3OC[C@@H]12`, which MIC [1] is on record?
The MIC was over 16 µg/mL.

And the MIC [2]?
Its MIC is over 16 µg/mL.

And the MIC [3]?
The MIC was 16 µg/mL (≈ 36.6 µM).

And the MIC [4]?
Its MIC is over 16 µg/mL.

And the MIC [5]?
Its MIC is over 16 µg/mL.

`CC(=O)NC[C@@H]1OC(=O)N2c3ccc(-c4ccc(C(F)(F)F)nc4)cc3OC[C@@H]12` was tested. Which MIC [1] did it give?
Its MIC is 2 µg/mL (≈ 4.91 µM).

What about the MIC [2] of the same compound?
The MIC was 1 µg/mL (≈ 2.45 µM).

And the MIC [3]?
Its MIC is 2 µg/mL (≈ 4.91 µM).

What about the MIC [4] of the same compound?
Its MIC is 2 µg/mL (≈ 4.91 µM).

And the MIC [5]?
The MIC was 1 µg/mL (≈ 2.45 µM).

`CC(=O)NC[C@@H]1OC(=O)N2c3ccc(-c4ccc(C(C)=O)cc4)cc3OC[C@@H]12` was tested. Which MIC [1] did it give?
The MIC was 2 µg/mL (≈ 5.26 µM).

And the MIC [2]?
The MIC was 1 µg/mL (≈ 2.63 µM).

And the MIC [3]?
The MIC was 1 µg/mL (≈ 2.63 µM).

And the MIC [4]?
The MIC was 1 µg/mL (≈ 2.63 µM).

What about the MIC [5] of the same compound?
Its MIC is 0.5 µg/mL (≈ 1.31 µM).

For `CC(=O)NC[C@@H]1OC(=O)N2c3ccc(-c4cccnc4)cc3OC[C@@H]12`, which MIC [1] is on record?
Its MIC is 0.5 µg/mL (≈ 1.47 µM).

What about the MIC [2] of the same compound?
The MIC was 0.5 µg/mL (≈ 1.47 µM).

What about the MIC [3] of the same compound?
Its MIC is 0.5 µg/mL (≈ 1.47 µM).

And the MIC [4]?
The MIC was 1 µg/mL (≈ 2.95 µM).

And the MIC [5]?
Its MIC is 0.5 µg/mL (≈ 1.47 µM).

For `CC(=O)NC[C@@H]1OC(=O)N2c3ccc(-c4ccc(NC(C)=O)nc4)cc3OC[C@@H]12`, which MIC [1] is on record?
The MIC was 1 µg/mL (≈ 2.52 µM).

And the MIC [2]?
Its MIC is 0.5 µg/mL (≈ 1.26 µM).

What about the MIC [3] of the same compound?
The MIC was 0.5 µg/mL (≈ 1.26 µM).

And the MIC [4]?
The MIC was 1 µg/mL (≈ 2.52 µM).

And the MIC [5]?
Its MIC is 1 µg/mL (≈ 2.52 µM).

What does the source list for `CC(=O)NC[C@@H]1OC(=O)N2c3ccc(-c4ccc(C#N)nc4)cc3OC[C@H]12`?
MIC [1]: > 16 µg/mL; MIC [2]: > 16 µg/mL; MIC [3]: > 16 µg/mL; MIC [4]: > 16 µg/mL; MIC [5]: > 16 µg/mL

With `CC(=O)NC[C@@H]1OC(=O)N2c3ccc(N4CCN(Cc5cccnc5)CC4)cc3OC[C@@H]12` as the compound, how does the MIC [1] read?
The MIC was over 16 µg/mL.

What about the MIC [2] of the same compound?
Its MIC is over 16 µg/mL.

And the MIC [3]?
The MIC was 16 µg/mL (≈ 36.6 µM).

What about the MIC [4] of the same compound?
Its MIC is over 16 µg/mL.

What about the MIC [5] of the same compound?
Its MIC is over 16 µg/mL.

What does the source list for `CC(=O)NC[C@@H]1OC(=O)N2c3ccc(-c4ccccc4)cc3OC[C@@H]12`?
MIC [1]: 0.5 µg/mL (≈ 1.48 µM); MIC [2]: 0.5 µg/mL (≈ 1.48 µM); MIC [3]: 0.5 µg/mL (≈ 1.48 µM); MIC [4]: 2 µg/mL (≈ 5.91 µM); MIC [5]: 1 µg/mL (≈ 2.96 µM)

Which results are given for `CC(=O)NC[C@@H]1OC(=O)N2c3ccc(-c4ccc(-n5ccnc5)nc4)cc3OC[C@@H]12`?
MIC [1]: 0.5 µg/mL (≈ 1.23 µM); MIC [2]: 0.5 µg/mL (≈ 1.23 µM); MIC [3]: 0.5 µg/mL (≈ 1.23 µM); MIC [4]: 1 µg/mL (≈ 2.47 µM); MIC [5]: 0.5 µg/mL (≈ 1.23 µM)

Which MIC [1] does the source give for `CC(=O)NC[C@@H]1OC(=O)N2c3ccc(-c4cnc(C#N)nc4)cc3OC[C@@H]12` here?
The MIC was 2 µg/mL (≈ 5.47 µM).

What about the MIC [2] of the same compound?
The MIC was 1 µg/mL (≈ 2.74 µM).

What about the MIC [3] of the same compound?
The MIC was 1 µg/mL (≈ 2.74 µM).

And the MIC [4]?
Its MIC is 2 µg/mL (≈ 5.47 µM).

What about the MIC [5] of the same compound?
The MIC was 0.5 µg/mL (≈ 1.37 µM).

`CC(=O)NC[C@@H]1OC(=O)N2c3ccc(-c4ccc(C(C)=O)cn4)cc3OC[C@@H]12` was tested. Which MIC [1] did it give?
The MIC was 2 µg/mL (≈ 5.24 µM).

What about the MIC [2] of the same compound?
The MIC was 2 µg/mL (≈ 5.24 µM).

What about the MIC [3] of the same compound?
Its MIC is 2 µg/mL (≈ 5.24 µM).

And the MIC [4]?
Its MIC is 4 µg/mL (≈ 10.5 µM).

And the MIC [5]?
The MIC was 2 µg/mL (≈ 5.24 µM).

For `CC(=O)NC[C@@H]1OC(=O)N2c3cc(F)c(-c4cccnc4)cc3OC[C@@H]12`, which MIC [1] is on record?
The MIC was 2 µg/mL (≈ 5.6 µM).

What about the MIC [2] of the same compound?
Its MIC is 1 µg/mL (≈ 2.8 µM).

And the MIC [3]?
The MIC was 2 µg/mL (≈ 5.6 µM).

What about the MIC [4] of the same compound?
Its MIC is 2 µg/mL (≈ 5.6 µM).

And the MIC [5]?
The MIC was 1 µg/mL (≈ 2.8 µM).

Which results are given for `CC(=O)NC[C@@H]1OC(=O)N2c3ccc(-c4cncc(N5CCOC5=O)c4)cc3OC[C@@H]12`?
MIC [1]: 1 µg/mL (≈ 2.36 µM); MIC [2]: 0.5 µg/mL (≈ 1.18 µM); MIC [3]: 1 µg/mL (≈ 2.36 µM); MIC [4]: 0.5 µg/mL (≈ 1.18 µM); MIC [5]: 0.5 µg/mL (≈ 1.18 µM)

How did the MIC [1] turn out when `CC(=O)NC[C@@H]1OC(=O)N2c3ccc(-c4cccc([N+](=O)[O-])c4)cc3OC[C@@H]12` was run?
The MIC was 0.5 µg/mL (≈ 1.3 µM).

And the MIC [2]?
The MIC was 0.5 µg/mL (≈ 1.3 µM).

What about the MIC [3] of the same compound?
The MIC was 0.5 µg/mL (≈ 1.3 µM).

What about the MIC [4] of the same compound?
The MIC was 2 µg/mL (≈ 5.22 µM).

What about the MIC [5] of the same compound?
Its MIC is 0.5 µg/mL (≈ 1.3 µM).

`CC(=O)NC[C@@H]1OC(=O)N2c3ccc(-c4ccc(C(=O)N(C)C)nc4)cc3OC[C@@H]12` was tested. Which MIC [1] did it give?
Its MIC is 2 µg/mL (≈ 4.87 µM).

And the MIC [2]?
The MIC was 1 µg/mL (≈ 2.44 µM).

And the MIC [3]?
Its MIC is 2 µg/mL (≈ 4.87 µM).

What about the MIC [4] of the same compound?
The MIC was 2 µg/mL (≈ 4.87 µM).

And the MIC [5]?
The MIC was 1 µg/mL (≈ 2.44 µM).

Which MIC [1] does the source give for `CC(=O)NC[C@@H]1OC(=O)N2c3ccc(-c4ccc(N5CCNCC5)nc4)cc3OC[C@@H]12` here?
The MIC was 1 µg/mL (≈ 2.36 µM).

And the MIC [2]?
The MIC was 1 µg/mL (≈ 2.36 µM).

What about the MIC [3] of the same compound?
The MIC was 0.5 µg/mL (≈ 1.18 µM).

And the MIC [4]?
The MIC was 0.5 µg/mL (≈ 1.18 µM).

And the MIC [5]?
The MIC was 0.5 µg/mL (≈ 1.18 µM).

What does the source list for `CC(=O)NC[C@@H]1OC(=O)N2c3ccc(-c4cc(C#N)ccn4)cc3OC[C@@H]12`?
MIC [1]: 0.25 µg/mL (≈ 0.686 µM); MIC [2]: 0.5 µg/mL (≈ 1.37 µM); MIC [3]: 0.5 µg/mL (≈ 1.37 µM); MIC [4]: 1 µg/mL (≈ 2.74 µM); MIC [5]: 0.25 µg/mL (≈ 0.686 µM)

What does the source list for `CC(=O)NC[C@@H]1OC(=O)N2c3ccc(-c4ccc(N5CCOC5=O)cn4)cc3OC[C@@H]12`?
MIC [1]: 1 µg/mL (≈ 2.36 µM); MIC [2]: 1 µg/mL (≈ 2.36 µM); MIC [3]: 1 µg/mL (≈ 2.36 µM); MIC [4]: 2 µg/mL (≈ 4.71 µM); MIC [5]: 1 µg/mL (≈ 2.36 µM)
